Eight compounds from patent publication US20260216368A1, “BIS-ESTER AND AMIDE CATIONIC LIPIDS” (SANOFI PASTEUR INC., priority 2022, published 2026) can be followed below.

A short description of data set [1]: DLS size and polydispersity of hEPO mRNA lipid nanoparticles. The data set is classed as physicochemical. The conditions noted are these: hEPO mRNA LNP, Cationic Lipid:DMG-PEG2000:Cholesterol:DOPE=40:1.5:28.5:30, N/P ratio 4, Process A. Here is the method:
The lipid nanoparticles in the examples of the present invention were formulated using Process A of WO 2018/089801 (see, e.g., Example 1 and FIG. 1 of WO 2018/089801). Process A (“A”) relates to a conventional method of encapsulating mRNA by mixing mRNA with a mixture of lipids, without first pre-forming the lipids into lipid nanoparticles. In an exemplary process, an ethanol lipid solution and an aqueous buffered solution of mRNA were prepared separately. A solution of mixture of lipids (cationic lipid, helper lipids, zwitterionic lipids, PEG lipids etc.) was prepared by dissolving lipids in ethanol. The mRNA solution was prepared by dissolving the mRNA in citrate buffer. Then, these two solutions were mixed using a pump system. In some instances, the two solutions were mixed using a gear pump system. In certain embodiments, the two solutions were mixing using a ‘T’ junction (or “Y” junction). The mixture was then purified by diafiltration with a TFF process. The resultant formulation concentrated and stored at 2-8° C. until further use.
(§1) Lipid nanoparticle formulations of Table 1 were prepared by Process A. More specifically, an ethanolic solution of a mixture of lipids including DMG-PEG-2000, cationic lipid, cholesterol, and phosphatidylethanolamine (DOPE) in a ratio of 1.5:40:28.5:30 were combined with an aqueous buffered solution (1 mM Citrate and 150 mM NaCl) of target mRNA at an acidic pH (4.5) under controlled conditions to yield a dispersion of uniform lipid nanoparticles (LNPs). Upon ultrafiltration and diafiltration into the final buffer, the resulting nanoparticle dispersions were diluted to required concentration using the final buffer (10% Trehalose), sterile filtered and stored frozen at −80° C. until use.
All of the lipid nanoparticle formulations comprised hEPO mRNA and the different lipids in following mol % ratios: Cationic Lipid: DMG-PEG2000; Cholesterol:DOPE=40:1.5:28.5:30.
DLS measurements were performed using a Malvern Instruments Zetasizer with a backscattering detector angle of 173° and a 4-mW, 633-nm He—Ne laser (Worcestershire, UK). The samples were analyzed by diluting in 10% Trehalose and measuring the size and Poly dispersity Index (PDI) in an optical grade polystyrene cuvette.
The following lipid nanoparticles were formulated according to Example 51.
as §1, with “Table 3” for “Table 1”

Data set [2] can be described thus: RiboGreen assay, % encapsulation of mRNA in lipid nanoparticles. Type of data set: physicochemical. To be noted: hEPO mRNA LNP, Cationic Lipid:DMG-PEG2000:Cholesterol:DOPE=40:1.5:28.5:30, N/P ratio 4, Process A. From the text: In embodiments, the lipid nanoparticle encapsulates a nucleic acid, optionally an mRNA encoding a peptide or protein. In embodiments, the peptide is an antigen. In embodiments, the lipid nanoparticle encapsulates an mRNA encoding a peptide or protein. As used herein, the phrase “encapsulation percentage” refers to the fraction of therapeutic agent (e.g. mRNA) that is effectively encapsulated within a liposomal-based vehicle (e.g. a lipid nanoparticle) relative to the initial fraction of therapeutic agent present in the lipid phase. In embodiments, the lipid nanoparticles have an encapsulation percentage for mRNA of at least 50%. In embodiments, the lipid nanoparticles have an encapsulation percentage for mRNA of at least 55%. In embodiments, the lipid nanoparticles have an encapsulation percentage for mRNA of at least 60%. In embodiments, the lipid nanoparticles have an encapsulation percentage for mRNA of at least 65%. In embodiments, the lipid nanoparticles have an encapsulation percentage for mRNA of at least 70%. In embodiments, the lipid nanoparticles have an encapsulation percentage for mRNA of at least 75%. In embodiments, the lipid nanoparticles have an encapsulation percentage for mRNA of at least 80%. In embodiments, the lipid nanoparticles have an encapsulation percentage for mRNA of at least 85%. In embodiments, the lipid nanoparticles have an encapsulation percentage for mRNA of at least 90%. In embodiments, the lipid nanoparticles have an encapsulation percentage for mRNA of at least 95%. In embodiments, the encapsulation percentage is calculated by performing the Ribogreen assay (Invitrogen) with and without the presence of 0.1% Triton-X 100.
The RiboGreen Assay is a fluorescence-based method for the determination of mRNA concentration (Total and Free) and % encapsulation using Quant-iT™ RiboGreen® RNA reagent in mRNA containing lipid nanoparticles.
• To each of the standards (Blank, mRNA-1, mRNA-2. mRNA-3, mRNA-4, mRNA-5) and Samples (free mRNA and total mRNA), add 1.0 mL of 200-fold Ribogreen Reagent Solution and gently mix by inversion. This is a 2× Dilution. • Add 200 μL of each standard and sample in triplicate using the reverse pipetting technique in a 96-well Costar Black with Clear Background Plate. Ensure no bubbles are present in the plate before the fluorescence reading. • Read the fluorescence signal using the below instrument parameters: • Read Type: Fluorescence, Bottom Read • Excitation: 485 nm; Cut-off: 515 nm; Emission: 530 nm • Plate Type: 96-well Costar Black with Clear Background
The average fluorescence from each calibration standard is plotted against the concentration to generate a linear calibration curve using the MS Excel software. The coefficient of determination (R^2) of calibration curve must be R^2>0.99.
[formula] • Where, • Y=average fluorescence value • m: slope • x: concentration (pg/mL) • c: y-intercept • Using the linear equation, calculate the concentration of free and total mRNA concentration in the test sample by replacing the y value in the equation with the average fluorescence value of each respective sample • Once the concentration is determined, the actual concentration in the sample can be back-calculated by multiplying the concentration in the test sample with the dilution factor (DF) as follows:
[formula] • Concentration of encapsulated mRNA can be determined by subtracting the concentration of free mRNA from the total mRNA. • % Encapsulation can then be calculated by taking the ratio of encapsulated mRNA over total mRNA and multiplying the result with 100.

For data set [3], the system named is Human erythropoietin (hEPO) levels in sera. Briefly: Delivery of hEPO mRNA by intramuscular administration of lipid nanoparticles; serum hEPO by ELISA. The data set is classed as in vivo, Mouse. The conditions noted are these: for hEPO 6 Hr (ng/mL) Mean / hEPO 24 Hr (ng/mL) Mean: serum, 0.1 μg/animal hEPO mRNA LNP, n=4; for hEPO 6 Hr (ng/mL) Mean: 6 hours post dose; for in vivo hEPO protein production (FIG. 51): intramuscular delivery of hEPO mRNA using lipid nanoparticles comprising the compound, result in words; for hEPO 24 Hr (ng/mL) Mean: 24 hours post dose. Here is the method: WO2022/099003 A1 describes an in vivo assay for intramuscular administration (e.g. on page 46, paragraph [00206]). Further details of the intramuscular experiment performed in this application are provided below.
Treatment Regimen: On Day 1, animals from Groups 1-8 were dosed via intramuscular injection while under light isoflurane anesthesia according to the study design table above. Animals in Groups 2-8 were injected with EPO in the right leg only. Group 1 animals received saline control.
Interim Sample Collections: Interim whole blood (~50 μL) was collected by tail snip or saphenous vein at 6 hours post dose administration (±5%). Blood samples were collected into serum separator tubes, allowed to clot at room temperature for at least 10 minutes, centrifuged at ambient temperature at minimum 1000 g for 10 minutes and the serum was extracted. All serum samples were stored at nominally −70° C. until analysis hEPO by the Testing Facility. The results of the EPO analysis were included in the Data Submission.
Terminal Blood Collections: Whole blood was collected via cardiac puncture into serum separator tube, allowed to clot at room temperature for at least 10 minutes, centrifuged at ambient temperature at minimum 1000 g for 10 minutes and the serum was extracted. Serum samples were stored at nominally −70° C. until analyzed for hEPO by the Test Facility.
ELISA Assay: Human erythropoietin (hEPO) levels in sera samples were determined by ELISA kit (R&D systems, Cat #DEP-00) according to the manufactory instruction and the results were included in the Data Submission. The “shaker” protocol was used. The serum samples were diluted between 1:40 and 1:100.
The ability of the further exemplary lipid nanoparticles in Example 54 to deliver hEPO mRNA by intramuscular administration was tested in accordance with the experimental protocol set out in Example 52.
On the technique in general: An ELISA detects its analyte on a solid surface through an enzyme-linked reagent.

Where [4] appears, read: single IM injection, female BALB/cJ mice.

As for `CCCCCCCCCCC(O)CN(CCCOC(=O)[C@H](Cc1ccccc1)NC(=O)CCCN(CC(O)CCCCCCCCCC)CC(O)CCCCCCCCCC)CC(O)CCCCCCCCCC` (stereo partly drawn) [Compound XCV, 3-[bis(2-hydroxydodecyl)amino]propyl (S)-2-{4-[bis(2-hydroxydodecyl)amino]butyrylamino}-3-phenylpropionate], in data set [1] (Table 3, further LNPs), the PDI was 0.191 and the “Size (nm)” value was 94 nm. Besides, the “Encapsulation Percentage (%)” value in data set [2] (Table 3, further LNPs) is recorded as 66%. For the same compound, the “hEPO 6 Hr (ng/mL) Mean” value in data set [3] (fourth occasion, IM, mice) is recorded as 22.4 ng/mL.

Turning to `CCCCCCCCC(O)CN(CCCOC(=O)CN(C)CC(=O)OCCCN(CC(O)CCCCCCCC)CC(O)CCCCCCCC)CC(O)CCCCCCCC` (centres unmarked) [XII], in data set [1] (Table 1), the PDI was 0.091 and the “Size (nm)” value is recorded as 110 nm. Also, the “Encapsulation Percentage (%)” value in data set [2] (Table 1) was 46%. In data set [3], the “in vivo hEPO protein production (FIG. 51)” value was “high levels of in vivo hEPO protein production”. In data set [3] (setting [4]), the “hEPO 6 Hr (ng/mL) Mean” value amounted to 35.0 ng/mL and the “hEPO 24 Hr (ng/mL) Mean” value amounted to 15.1 ng/mL.

On to `CCCCCCCCCCC(O)CN(CCCOC(=O)N[C@@H](Cc1ccccc1)C(=O)OCCCN(CC(O)CCCCCCCCCC)CC(O)CCCCCCCCCC)CC(O)CCCCCCCCCC` (stereo partly drawn) [Compound XCVII, 3-(bis(2-hydroxydodecyl)amino)propyl ((3-(bis(2-hydroxydodecyl)amino)propoxy)carbonyl)-L-phenylalaninate], for which, in data set [1] (Table 3, further LNPs), the PDI came out at 0.101 and the “Size (nm)” value was found to be 125 nm. Besides, the “Encapsulation Percentage (%)” value in data set [2] (Table 3, further LNPs) is on record as 83%. The “hEPO 6 Hr (ng/mL) Mean” value in data set [3] (third occasion, IM, mice) is 16.0 ng/mL.

Consider `CCCCCCCCCCC(=O)OCCCCC(O)CN(CCCCNC(=O)CC(C)(O)CC(=O)NCCCCN(CC(O)CCCCCOC(=O)C(CCCCCCCC)CCCCCCCC)CC(O)CCCCOC(=O)CCCCCCCCCC)CC(O)CCCCCOC(=O)C(CCCCCCCC)CCCCCCCC` (centres unmarked) [Compound XCIV], for which, in data set [1] (Table 3, further LNPs), the PDI is listed as 0.085 and the “Size (nm)” value was found to be 138 nm. For the same compound, the “Encapsulation Percentage (%)” value in data set [2] (Table 3, further LNPs) is 96%. Besides, the “hEPO 6 Hr (ng/mL) Mean” value in data set [3] (fifth occasion, IM, mice) came out at 36.4 ng/mL.

Consider `CCCCCCCCCCC(O)CN(CCCOC(=O)[C@H](Cc1ccc(O)cc1)NC(=O)CCCN(CC(O)CCCCCCCCCC)CC(O)CCCCCCCCCC)CC(O)CCCCCCCCCC` (stereo partly drawn) [Compound XCIX, 3-(bis(2-hydroxydodecyl)amino)propyl (4-(bis(2-hydroxydodecyl)amino)butanoyl)-L-tyrosinate], for which the “hEPO 6 Hr (ng/mL) Mean” value in data set [3] (third occasion, IM, mice) came to 38.1 ng/mL.

Take `CCCCCC/C=C\COC(=O)CCCCCC(O)CN(CCCOC(=O)CN(C)CC(=O)OCCCN(CC(O)CCCCCC(=O)OC/C=C\CCCCCC)CC(O)CCCCCC(=O)OC/C=C\CCCCCC)CC(O)CCCCCC(=O)OC/C=C\CCCCCC` (centres unmarked) [XV]: in data set [1] (Table 1), the PDI worked out at 0.052 and the “Size (nm)” value amounted to 134 nm. In addition, the “Encapsulation Percentage (%)” value in data set [2] (Table 1) was 33%. In data set [3], the “in vivo hEPO protein production (FIG. 51)” value is on record as “high levels of in vivo hEPO protein production”. Further, in data set [3] (setting [4]), the “hEPO 6 Hr (ng/mL) Mean” value was found to be 31.9 ng/mL and the “hEPO 24 Hr (ng/mL) Mean” value came to 15.1 ng/mL.

Take `CCCCCCCCCCC(O)CN(CCCOC(=O)[C@H](CCc1ccccc1)NC(=O)CCCN(CC(O)CCCCCCCCCC)CC(O)CCCCCCCCCC)CC(O)CCCCCCCCCC` (stereo partly drawn) [Compound XCVI, 3-(bis(2-hydroxydodecyl)amino)propyl (2S)-2-(4-(bis(2-hydroxydodecyl)amino)butanamido)-4-phenylbutanoate]: in data set [1] (Table 3, further LNPs), the PDI was determined as 0.166 and the “Size (nm)” value was found to be 123 nm. Also, the “Encapsulation Percentage (%)” value in data set [2] (Table 3, further LNPs) was found to be 85%. Besides, the “hEPO 6 Hr (ng/mL) Mean” value in data set [3] (fourth occasion, IM, mice) is given as 37.3 ng/mL.

As for `CCCCCCCCCCC(O)CN(CCCOC(=O)CCC(C)C(=O)OCCCN(CC(O)CCCCCCCCCC)CC(O)CCCCCCCCCC)CC(O)CCCCCCCCCC` (centres unmarked) [XXXII], in data set [1] (Table 1), the PDI is on record as 0.124 and the “Size (nm)” value amounted to 106 nm. In data set [2] (Table 1), the “Encapsulation Percentage (%)” value was 78%. Also, the “in vivo hEPO protein production (FIG. 51)” value in data set [3] is listed as “high levels of in vivo hEPO protein production”. Further, in data set [3] (setting [4]), the “hEPO 6 Hr (ng/mL) Mean” value is reported as 17.0 ng/mL and the “hEPO 24 Hr (ng/mL) Mean” value was determined as 10.3 ng/mL.
